Experimental data taken from patent publication US20240368147A1, “CYCLIN K DEGRADER” (ADLAI NORTYE BIOPHARMA CO., LTD., priority 2021, published 2024).

test system: HGC27 (Human Gastric Cancer Cell); assay: HGC27 cell growth inhibition (CellTiter-Glo); format: cell-based; conditions: HGC27 cells, 24 hours, CellTiter-Glo; read-out: HGC27 CTG IC50
Description: Biological Activity Detection of HGC27 (Human Gastric Cancer Cell) Cell Growth Inhibition
This detection method is used to evaluate the cellular level biological activity of the compounds of the present disclosure.
Harvest HGC27 cells (purchased from Chinese Academy of Sciences), resuspend in complete culture medium and adjust the cell density to 0.2×10^6 cells per ml. Add 100 μL of cell suspension to each well into a 96-well plate and incubate overnight in a 37° C., 5% CO2 incubator. Prepare the compound to be tested and add it to the cell plate so that the maximum concentration of the compound is 10 μM. Set 8 concentration points according to 3-fold dilution. At the same time, set up a 100% inhibition control well, that is, a well with no cells added and only an equal volume of complete culture medium; and a 0% inhibition control well, that is, a cell well with 0.1% DMSO added. The above cell plate was cultured at 37° C. and 5% CO2 for 24 hours. Take out the cell culture plate, add 25 μl CellTiter-Glo® Luminescent Cell Viability reagent (promega cat #G7573) to each well, incubate in the dark for 10 minutes, transfer 100 μL to a white plate, and use Molecular Devices SpectraMax i3 to detect chemiluminescence. Data processing uses the following formula to calculate the inhibition rate: compound inhibition rate=(0% inhibition of control well signal−compound treatment well signal)/(0% inhibition of control well signal−100% inhibition of control well signal)*100%. The calculated data were fitted using graphpad prism software with four parameters and the corresponding IC50 was calculated.
According to the above detection method, the biological activity of the compound of the present disclosure was evaluated at the cellular level. Wherein, CR8 is a literature compound, which was purchased from Shanghai Bide Pharmaceutical.

IC50 [µM]	Compound
0.202	O[C@@H]1CCC[C@H]1Nc1nc(NCc2ccc(-c3ccccn3)cc2)ncc1C(F)(F)F [Compound 152]

same assay, conditions: Homo sapiens, HGC-27, 24 h, HGC27 cells, 24 hours, CellTiter-Glo; read-out: HGC27 CTG IC50

IC50 [µM]	Compound
0.429	CC[C@H](CO)Nc1nc(NCc2ccc(-c3ccccn3)cc2)c2ncn(C(C)C)c2n1 [CR8, reference compound]
0.158	CC[C@H](CO)Nc1nc(NCc2ccc(-c3ccccn3)cc2)ncc1C(F)(F)F [Compound 25]
0.379	CN1CCC(Oc2nc(NCc3ccc(-c4ccccn4)cc3)ncc2C(F)(F)F)CC1 [Compound 35]
0.341	Cc1ccnc(-c2ccc(CNc3ncc(C(F)(F)F)c(OC4COC4)n3)cc2)c1 [Compound 40]
0.266	OCc1ccnc(-c2ccc(CNc3ncc(C(F)(F)F)c(OC4COC4)n3)cc2)c1 [Compound 43]
0.251	Cc1cc(CO)cc(-c2ccc(CNc3ncc(C(F)(F)F)c(OC4COC4)n3)cc2)n1 [Compound 64]
0.185	Cc1cc(CO)nc(-c2ccc(CNc3ncc(C(F)(F)F)c(OC4COC4)n3)cc2)c1 [Compound 69]
0.16	O[C@@H]1CCC[C@H]1Nc1nc(NCc2ccc(-c3ccccn3)cc2)ncc1C(F)(F)F [Compound 70]
0.405	CC(C)(C)[C@H](CO)Nc1nc(NCc2ccc(-c3ccccn3)cc2)ncc1C(F)(F)F [Compound 85]
0.486	O[C@H]1CC[C@H]1Nc1nc(NCc2ccc(-c3ccccn3)cc2)ncc1C(F)(F)F [Compound 91]
0.275	OCC(CO)Nc1nc(NCc2ccc(-c3ccccn3)cc2)ncc1C(F)(F)F [Compound 104]
0.251	COc1ccnc(-c2ccc(CNc3ncc(C(F)(F)F)c(OC4COC4)n3)cc2)c1 [Compound 114]
0.479	C[C@@H](Nc1ncc(C(F)(F)F)c(OC2COC2)n1)c1ccc(-c2ccccn2)cc1 [Compound 119]
0.191	OCc1cc(CO)nc(-c2ccc(CNc3ncc(C(F)(F)F)c(OC4COC4)n3)cc2)c1 [Compound 125]
0.17	C[C@@H](O)[C@@H](CO)Nc1nc(NCc2ccc(-c3ccccn3)cc2)ncc1C(F)(F)F [Compound 126]
0.446	NC(=O)[C@@H](CO)Nc1nc(NCc2ccc(-c3ccccn3)cc2)ncc1C(F)(F)F [Compound 127]
0.077	C=Cc1ccnc(-c2ccc(CNc3ncc(C(F)(F)F)c(OC4COC4)n3)cc2)c1 [Compound 129]
0.1	C[C@@H](O)[C@@H](C)Oc1nc(NCc2ccc(-c3ccccn3)cc2)ncc1C(F)(F)F [Compound 131]
0.37	CC[C@@H](Nc1nc(NCc2ccc(-c3ccccn3)cc2)ncc1C(F)(F)F)C(N)=O [Compound 134]

IC50 [µM]	Compound
0.427	CCc1ccnc(-c2ccc(CNc3ncc(C(F)(F)F)c(OC4COC4)n3)cc2)c1 [Compound 135]
0.254	N#Cc1ccnc(-c2ccc(CNc3ncc(C(F)(F)F)c(OC4COC4)n3)cc2)c1 [Compound 138]
0.281	CS(=O)(=O)c1cccc(-c2nc(NCc3ccc(-c4ccccn4)cc3)ncc2C(F)(F)F)c1 [Compound 146]
0.41	NS(=O)(=O)c1cncc(-c2nc(NCc3ccc(-c4ccccn4)cc3)ncc2C(F)(F)F)c1 [Compound 147]
0.238	CC[C@H](CO)Oc1nc(NCc2ccc(-c3ccccn3)cc2)ncc1C(F)(F)F [Compound 149]
0.197	O[C@H]1COC[C@H]1Oc1nc(NCc2ccc(-c3ccccn3)cc2)ncc1C(F)(F)F [Compound 151]
0.169	O[C@H]1CCCC[C@H]1Nc1nc(NCc2ccc(-c3ccccn3)cc2)ncc1C(F)(F)F [Compound 156]
0.049	COC[C@H](CO)Nc1nc(NCc2ccc(-c3ccccn3)cc2)ncc1C(F)(F)F [Compound 158]
0.045	OC[C@H](Nc1nc(NCc2ccc(-c3ccccn3)cc2)ncc1C(F)(F)F)C1CC1 [Compound 159]
0.048	Cc1cc(CO)cc(-c2ccc(CNc3ncc(C(F)(F)F)c(N[C@H](CO)[C@@H](C)O)n3)cc2)n1 [Compound 160]
0.193	CC[C@@H](Nc1nc(NCc2ccc(-c3cc(CO)cc(C)n3)cc2)ncc1C(F)(F)F)C(N)=O [Compound 161]
0.393	CC[C@@H](Nc1nc(NCc2ccc(-c3cc(C)cc(CO)n3)cc2)ncc1C(F)(F)F)C(N)=O [Compound 163]
0.386	O[C@H]1CNCC1Oc1nc(NCc2ccc(-c3ccccn3)cc2)ncc1C(F)(F)F (some centres unmarked) [Compound 164]
0.089	C[C@H](CO)Oc1nc(NCc2ccc(-c3ccccn3)cc2)ncc1C(F)(F)F [Compound 165]
0.024	C[C@@H](Oc1nc(NCc2ccc(-c3ccccn3)cc2)ncc1C(F)(F)F)C(N)=O [Compound 166]
0.049	C[C@@H](Oc1nc(NCc2ccc(-c3ccccn3)cc2)ncc1C(F)(F)F)C(C)(C)O [Compound 167]
0.06	C[C@@H](O)[C@@H](C)Oc1nc(NCc2ccc(-c3cc(CO)cc(CO)n3)cc2)ncc1C(F)(F)F [Compound 168]
0.053	CC[C@@H](Nc1nc(NCc2ccc(-c3cc(CO)cc(CO)n3)cc2)ncc1C(F)(F)F)C(N)=O [Compound 169]
0.048	C[C@@H](O)[C@@H](CO)Nc1nc(NCc2ccc(-c3cc(CO)cc(CO)n3)cc2)ncc1C(F)(F)F [Compound 170]

IC50 [µM]	Compound
0.025	C[C@@H](O)[C@@H](CO)Nc1nc(NCc2ccc(-c3cccc(CO)n3)cc2)ncc1C(F)(F)F [Compound 171]
0.406	C[C@@H](O)[C@@H](CO)Nc1nc(NCc2ccc(-c3cc(CO)cc(CO)n3)cc2)ncc1C#N [Compound 175]
0.171	CC[C@@H](Nc1nc(NCc2ccc(-c3cc(CO)cc(CO)n3)cn2)ncc1C(F)(F)F)C(N)=O [Compound 176]
0.193	C[C@@H](O)[C@@H](CO)Nc1nc(NCc2ccc(-c3cc(CO)cc(CO)n3)cn2)ncc1C(F)(F)F [Compound 177]
0.108	N#Cc1cc(CO)nc(-c2ccc(CNc3ncc(C(F)(F)F)c(OC4COC4)n3)cc2)c1 [Compound 179]
0.063	C[C@@H](Nc1ncc(C(F)(F)F)c(OC2COC2)n1)c1ccc(-c2cc(CO)cc(CO)n2)cc1 [Compound 181]
0.068	C[C@@H](O)[C@@H](C)Oc1nc(NCc2ccc(-c3cc(CO)cc(CO)n3)cn2)ncc1C(F)(F)F [Compound 182]
0.258	C[C@@H](Nc1nc(NCc2ccc(-c3ccccn3)cc2)ncc1C(F)(F)F)C(N)=O [Compound 188]
0.025	C[C@@H](Nc1nc(NCc2ccc(-c3ccccn3)cc2)ncc1C(F)(F)F)C(=O)N(C)C [Compound 192]
0.039	CNC(=O)[C@@H](C)Nc1nc(NCc2ccc(-c3ccccn3)cc2)ncc1C(F)(F)F [Compound 193]
0.278	C[C@@H](O)[C@@H](C)Nc1nc(NCc2ccc(-c3cc(CO)cc(CO)n3)cc2)ncc1C(F)(F)F [Compound 194]
0.025	CC[C@@H](Nc1nc(NCc2ccc(-c3ccccn3)cc2)ncc1C(F)(F)F)[C@@H](C)O [Compound 195]
0.439	CC[C@@H](Nc1nc(NCc2ccc(-c3cc(CO)cc(CO)n3)cc2)ncc1C(F)(F)F)[C@@H](C)O [Compound 198]
0.205	CC[C@H](O)[C@@H](C)Nc1nc(NCc2ccc(-c3ccccn3)cc2)ncc1C(F)(F)F [Compound 199]
0.367	C[C@@H](O)[C@@H](CN1CCCC1)Nc1nc(NCc2ccc(-c3ccccn3)cc2)ncc1C(F)(F)F [Compound 202]
0.065	NC(=O)[C@H](Nc1nc(NCc2ccc(-c3ccccn3)cc2)ncc1C(F)(F)F)C1CC1 [Compound 206]
0.034	CC(C)[C@@H](Nc1nc(NCc2ccc(-c3ccccn3)cc2)ncc1C(F)(F)F)C(N)=O [Compound 210]
0.11	NC(=O)[C@H](Nc1nc(NCc2ccc(-c3ccccn3)cc2)ncc1C(F)(F)F)C1CCC1 [Compound 211]
0.292	CC[C@H](CN)Nc1nc(NCc2ccc(-c3ccccn3)cc2)ncc1C(F)(F)F [Compound 214]

same assay, conditions: Homo sapiens, HGC-27, 24 h, read-out: HGC27 CTG IC50

Compound	IC50 [µM]
FC(F)(F)c1cnc(NCc2ccc(-c3cnccn3)cc2)nc1OC1COC1 [Compound 21]	0.155
C[C@@H](O)[C@H](Nc1nc(NCc2ccc(-c3ccccn3)cc2)ncc1C(F)(F)F)C(N)=O [Compound 207]	0.103
C[C@H](O)[C@@H](Nc1nc(NCc2ccc(-c3ccccn3)cc2)ncc1C(F)(F)F)C(N)=O [Compound 212]	0.187
C[C@@H](O)[C@@H](Nc1nc(NCc2ccc(-c3ccccn3)cc2)ncc1C(F)(F)F)C(N)=O [Compound 213]	0.123
